The supplement of paper PMC10949913

What was measured:
Test in all cases: area under concentration-response curve (viability) (AUC (a.u.)); higher = less active
Settings in all cases: 48 h
CU-ACC1 = system: CU-ACC1
In short: (§1)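 Three adrenocortical carcinoma cell lines were exposed for 48 h to library compounds at 11 concentrations in 1,536-well plates, then read by CellTiter-Glo luminescence. Signals were scaled per plate against vehicle and empty-well controls. From fitted concentration-response curves of inhibitory or non-responding classes alone, AC50 and area under the curve were obtained.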

NCI-H295R = system: NCI-H295R
In short: as §1

CU-ACC2 = system: CU-ACC2
In short: as §1

Compound	area under concentration-response curve (CU-ACC1)	area under concentration-response curve (NCI-H295R)	area under concentration-response curve (CU-ACC2)
CN1CCN2c3ncccc3Cc3ccccc3C2C1 (stereo not given)	494	556	579
CC(C)(Sc1cc(C(C)(C)C)c(O)c(C(C)(C)C)c1)Sc1cc(C(C)(C)C)c(O)c(C(C)(C)C)c1	550	601	652
Cn1cnc2c(F)c(Nc3ccc(Br)cc3Cl)c(C(=O)NOCCO)cc21	463	500	493
CNC[C@H](O)c1cccc(O)c1	440	449	508
CN[C@@H]1[C@@H](O)[C@@H](O[C@@H]2[C@@H](O)[C@H](O[C@H]3O[C@H](CN)[C@@H](O)[C@H](O)[C@H]3O)[C@@H](N)C[C@H]2NC(=O)C(O)CN)OC[C@]1(C)O.O=S(=O)(O)O (stereo not given in full)	526	553	601
Cn1cc(-c2ccc3nnc(Sc4ccc5ncccc5c4)n3n2)cn1	516	525	447
CC1(N)CCN(c2cnc(-c3cccc(Cl)c3Cl)c(N)n2)CC1	543	577	627
CCCCCCCCCCCCCCCCCCOP(=O)([O-])OC1CC[N+](C)(C)CC1	418	449	534
C[C@H]1O[C@H]([C@H](O)[C@@H]1O)N2\C=C(F)/C(=O)NC2=O	559	550	621
CC[S+](=O)([O-])N1CCC([C@@H](C)n2c(C)c(/C(O)=N/Cc3c(OC)cc(C)nc3O)c3ccccc32)CC1	509	537	605
Oc1ccc(/C=C/c2cc(O)cc(O)c2)cc1	482	547	574
CCN1CCN(c2ccc(Nc3cc(N(C)C(=O)Nc4c(Cl)c(OC)cc(OC)c4Cl)ncn3)cc2)CC1	511	479	580
C=C1/C(=C/C=C2\CCCC3(C)[C@@H]([C@H](C)/C=C/C=C/C(O)(CC)CC)CC[C@@H]23)C[C@@H](O)C[C@@H]1O (stereo not given in full)	480	522	576
Nc1ncc(C(=O)NC2CN(C(=O)C3CC3)C2)c2ccc(-c3cccc(F)c3)nc12	538	574	647
CCCCCCCCCCCCc1ccc([S+](=O)([O-])Nc2nncs2)cc1	543	527	604
CN(C(=O)c1ccc(F)cc1C(F)(F)F)C1CCN(c2nnc(-c3ccnn3C)c3ccccc23)CC1	495	566	601
CCCCC(=O)O[C@@]1([C@@H](C)C[C@H]2[C@@H]3CCC/4=C/C(=O)/C=C\[C@]4(C)[C@@]3(F)[C@@H](O)C[C@]12C)C(=O)CO	455	462	555
OC(=O)C1=CC=C(NC2=NC3=C(C\N=C(/C4=CC(=CC=C34)Cl)C5=C(F)C=CC=C5F)C=N2)C=C1	504	517	559
COc1ccc(CCN2CCN(CCCc3ccccc3)CC2)cc1OC	541	562	627
C[S+](=O)([O-])Oc1ccc2c(NC(N)=O)c(C(=O)c3ccc(Cl)cc3Cl)oc2c1	515	532	568
CN(Cc1cnc2nc(N)nc(N)c2n1)c1ccc(C(=O)N[C@@H](CCC(=O)O)C(=O)O)cc1	508	539	615
Nc1n[nH]c2nnc(-c3c(-c4ccccc4)nn4ccccc34)cc12	489	515	595
C/C=C(/C)C(=O)O[C@H]1C(C)=CC23C(=O)C(C=C(CO)[C@@H](O)[C@]12O)[C@H]1[C@@H](C[C@H]3C)C1(C)C (stereo not given in full)	399	484	505

Compound	area under concentration-response curve (CU-ACC1)	area under concentration-response curve (NCI-H295R)	area under concentration-response curve (CU-ACC2)
O=C(O)CCNc1cc(N2CCc3ccccc3CC2)nc(-c2cccnc2)n1	538	533	636
O=C(O)C(=O)c1cn(Cc2ccccc2)c2ccc(-c3ccc(OC(F)(F)F)cc3)cc12	474	489	489
Cc1cc(O)cc2c1[C@]1(C)CC[C@H]3C(C)(C)CCC[C@]3(C)[C@H]1C2	53.6	89.9	190
Cc1nc(C)c(CN2CCN(C(c3ccc(F)cc3)c3ccc(F)cc3)CC2)nc1C	481	471	563
NC1CCC(N[C@@H]2C[C@H]2c2ccccc2)CC1 (stereo not given in full)	409	458	487
C[C@H]1O[C@H](O[C@H]2[C@H](O)[C@@H](O)[C@@H](O[C@H]3[C@H](O)[C@@H](O)C(O)O[C@@H]3CO)O[C@@H]2CO)[C@H](O)[C@@H](O)[C@@H]1N[C@H]1C=C(CO)[C@@H](O)[C@H](O)[C@H]1O (stereo not given in full)	414	447	482
C[S+]([O-])(=O)NC1=CC2=C(C=C1OC3=CC=CC=C3)C(=O)\C(=C/O2)NC=O	477	487	508
Cc1ccnc(N[S+](=O)([O-])c2ccc(NC(=O)Nc3ccc([S+](=O)([O-])Nc4nccc(C)n4)cc3)cc2)n1	499	537	566
CC(=O)O[C@@]1(CC[C@H]2[C@@H]3\C=C(C)/C4=C/C(=O)CC[C@]4(C)[C@H]3CC[C@]12C)C(C)=O	471	492	553
COc1cc(CNC(=O)CCCC/C=C/C(C)C)ccc1O	542	599	653
Nc1nc(N)c2nc(-c3cccc(O)c3)c(-c3cccc(O)c3)nc2n1	448	483	499
COC1=C(NC2=NC=C(Cl)C(=N2)N[C@@H]3[C@H]\4C[C@@H](\C=C4)[C@H]3C(N)=O)C=CC5=C1CCC(CC5)N6CCOCC6 (stereo not given in full)	526	460	600
COc1ccc(-n2cnc3cc(C(=O)N4CCCCC4)ccc32)cc1	502	479	534
CCC(=O)O[C@@]1(CC[C@H]2[C@@H]3CCC/4=C/C(=O)CC[C@]4(C)[C@H]3CC[C@]12C)C(=O)CO	508	518	585
CNc1nc(C)nc(N[C@H]2CCC[C@@H](C(=O)NCc3ccc(C#N)cc3C(F)(F)F)C2)n1	497	496	593
COC/1=C(\CNC(=O)C2=C(C)[N]([C@H](C)C3CCN(CC3)CC(F)(F)F)C4=C2C=CC=C4)C(=O)N/C(=C1)C	453	470	556
COc1ccc(Nc2nccc(NCCO)n2)cc1	496	517	578
Cc1cccc(-c2n[nH]cc2-c2ccc3ncccc3n2)n1	468	524	567
CSCC[C@@H](NC(=O)[C@@H](Cc1ccccc1)NC(=O)CNC(=O)CNC(=O)[C@@H](N)Cc1ccc(O)cc1)C(=O)O	535	566	616
O=C(NCC1CCCCN1)c1cc(OCC(F)(F)F)ccc1OCC(F)(F)F (stereo not given)	431	525	527
N[C@@H](CC(=O)N1CCn2c(nnc2C(F)(F)F)C1)Cc1cc(F)c(F)cc1F	554	555	597
COc1cc(-c2cc(-c3ccc(N4CCNCC4)cc3)cnc2C)cc(OC)c1OC	548	556	585
